{
  "source": "patent US8753857B2",
  "about": "“Crystal structure of the pro form of a matrix metalloproteinase and an allosteric processing inhibitor” (Janssen Pharmaceutica N.V., priority 2011, dated 2014)",
  "key": {"[1]": {"test_system": "rats with SCW-induced arthritis", "assay": "Efficacy in rats with SCW-induced arthritis (ankle thickness, clinical scores)", "format": "in vivo, rat", "conditions": "5, 20, 50 mg/kg BID oral, Day 18-26", "protocol": "SCW PG-PS 10S (Beckton Dickinson Cat#210866) suspended in saline was vortexed for 30 seconds and sonicated for 3 min with a probe type sonicator prior to injection. Female Lewis (LEW/N) rats, 5-6 weeks of age (80-100 g) were injected (i.p.) with SCW PG-PS (15 μg of rhamnose/gram BW) in the lower left quadrant of the abdomen using a 1 mL syringe fitted with a 23-gauge needle. Control (disease-free) rats were treated in a similar manner with sterile saline. Control rats were sacrificed on day 5 and groups of SCW-injected rats were sacrificed on day 5 when acute inflammation was maximal or on day 18 when chronic inflammation was established.\nTo induce arthritis, Female Lewis (LEW/N) rats, 5-6 weeks of age (80-100 g) were injected (i.p.) with SCW PG-PS as described above. Eighteen days later, arthritis was well established. Calipers were used to measure the width (anterior to posterior surface) of the left and right hind ankles of each rat. Each ankle was measured 3 times and averaged, and treatment groups were randomized based on ankle thickness (Table 6). Commencing on day 18, randomized groups of arthritic rats (n=5 rats/group) received vehicle or 5, 20, or 50 mg/kg Example 2 BID by oral gavage. Vehicle consisted of an aqueous mixture containing 2% (v:v) N-methylpyrrolidone, 5% (v:v) glycerine, and 20% (w:v) captisol. Treatment continued daily through the morning of day 26. […]"}, "[2]": {"target": "T1, proMMP9 (Homo sapiens, UniProt P14780)", "T1 construct": "endogenous in cells; host or cells: HFL-1 (ATCC CCL-153), TNFα-stimulated, with 30 nM human neutrophil elastase added", "T1 sequence (P14780 20-707 limits assumed)": "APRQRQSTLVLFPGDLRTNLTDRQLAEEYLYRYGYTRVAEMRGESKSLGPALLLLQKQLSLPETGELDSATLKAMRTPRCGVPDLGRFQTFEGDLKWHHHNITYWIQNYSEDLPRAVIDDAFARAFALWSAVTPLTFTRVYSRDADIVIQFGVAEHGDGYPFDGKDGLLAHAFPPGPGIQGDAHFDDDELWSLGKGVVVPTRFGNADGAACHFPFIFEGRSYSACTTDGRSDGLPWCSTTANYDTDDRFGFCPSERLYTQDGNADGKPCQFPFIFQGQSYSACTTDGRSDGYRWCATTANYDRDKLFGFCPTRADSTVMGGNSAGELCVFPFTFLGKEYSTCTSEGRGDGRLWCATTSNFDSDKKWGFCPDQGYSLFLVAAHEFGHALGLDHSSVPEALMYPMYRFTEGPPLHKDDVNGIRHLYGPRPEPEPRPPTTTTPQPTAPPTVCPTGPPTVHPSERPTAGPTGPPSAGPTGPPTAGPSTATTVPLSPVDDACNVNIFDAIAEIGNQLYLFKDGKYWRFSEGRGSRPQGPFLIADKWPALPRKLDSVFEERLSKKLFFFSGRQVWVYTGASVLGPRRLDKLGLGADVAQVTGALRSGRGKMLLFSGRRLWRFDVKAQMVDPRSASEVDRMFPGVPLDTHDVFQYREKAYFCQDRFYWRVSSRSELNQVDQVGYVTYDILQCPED", "assay": "Activation of proMMP9 by human fetal lung fibroblast (HFL-1) cultures (Western blot)", "format": "cell-based", "conditions": "3.3 μM, 30 nM elastase, 72 hrs, mAb-L51/82", "protocol": "Example 2 was assessed additionally for ability to block the maturation of proMMP9 to active MMP9 in cultures of human fetal lung fibroblasts (HFL-1, American Type Culture Collection #CCL-153). Unlike rat synoviocytes, HFL-1 cells were unable to process proMMP9 to the active form without addition of neutrophil elastase. […] Rather, the function of elastase in this assay may be to inactivate tissue inhibitors of matrix metalloproteinases (TIMPs) that repress endogenous pathways of MMP9 activation (Skold, Liu et al. 1999).\nHLF-1 were maintained in monolayer culture in DMEM with 10% FCS and were used between passage numbers 5-15. HLF-1 were embedded in collagen gels as described for rat SCW synoviocytes (vida supra). Half mL gels containing 0.4 million cells were dislodged into wells of 12 well Costar plates containing 1 mL/well of DMEM adjusted to contain 0.05% BSA and 100 ng/mL human TNFα (R&D Systems Cat #210-TA/CF). After overnight culture (37° C. and 5% CO2) wells were adjusted to contain an additional 0.5 mL of DMEM containing 0.05% BSA and with or without 13.2 μM Example 2 (final concentration was 3.3 μM Example 2). Next, cultures were adjusted to contain 30 nM human elastase (Innovative Research). The plates were cultured an additional 72 hrs, at which time MMP9 secreted into the conditioned media was bound to gelatin-sepharose and evaluated by Western blot analysis as described for the rat synoviocyte cultures (vida supra). mAb-51/82 detected three forms of MMP9 in HFL-1 cultures.\nA second experiment was performed to determine if the 80 kD form was mature active MMP9 and to determine the potency of Example 2 as an inhibitor of MMP9 maturation in this assay. HFL-1 cells embedded in collagen gels were cultured as described above in the presence of TNFα overnight and the cultures were then adjusted to contain 30 nM elastase and graded concentrations of Example 2 for an additional 72 hrs at which time MMP9 secreted into the conditioned media was bound to gelatin-sepharose and evaluated by Western blot analysis for active MMP9 using pAb-1246 raised against the N-terminal neoepitope of active MMP9 (Table 5). In the absence of Example 2, pAb-1246 readily detected MMP9 with an electrophoretic mobility of approximately 80 kD. […] Inhibition occurred over a dose range with an IC50 of approximately 0.3 μM Example 2."}},
  "data": [
    {"smiles": "Cc1nc(C)c(-c2csc(Nc3cc(S(N)(=O)=O)ccc3OC(C)C)n2)s1", "note": "[Example 2, 3-(2′,4′-Dimethyl-[4,5′]bithiazolyl-2-ylamino)-4-isopropoxy-benzenesulfonamide.HBr]", "values": [
      {"measurement": "Effect on ankle thickness measurements", "setting": "[1]", "value": "dose-dependent decrease"},
      {"measurement": "Effect on clinical score measurements", "setting": "[1]", "value": "dose dependent decrease"},
      {"measurement": "Percent of total signal 80 kD", "setting": "[2]", "value": 7, "unit": "%"},
      {"measurement": "Percent of total signal 86 kD", "setting": "[2]", "value": 47, "unit": "%"},
      {"measurement": "Percent of total signal 100 kD", "setting": "[2]", "value": 46, "unit": "%"},
      {"measurement": "Signal Total", "setting": "[2]", "value": 91346, "unit": "INT * mm^2"}
    ]}
  ]
}
